Results on eight molecules are retold here after PubChem BioAssay (NCI).

Where “and” joins values, the source holds several entries; their conditions need not be identical. Identical values can stand only once.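 1) Cells in 96-well plates. 2) Compound, 48 h, 5 concentrations. 3) Linear interpolation between surrounding doses. 4) Unreached endpoint = highest concentration. Here, GI50 denotes the concentration required for 50% inhibition of growth. The concentration for full growth arrest is given as TGI.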

Some test systems named below: SF-539 CNS; HOP-92 NSCLC; SF-268 CNS; UACC-62 melanoma; HOP-62 NSCLC; LOX IMVI melanoma; NCI-H460 lung; UO-31 renal; EKVX NSCLC; SW-620 colon.
Test in all cases: NCI anticancer screen, dose series, 48 h

`CN(C)CCCC1(c2ccc(F)cc2)OCc2cc(-c3cncc4ccccc34)ccc21` (stereo not given): the GI50 in the experiment on SF-539 CNS was 1.76 µM; in the experiment on HOP-92 NSCLC, 1.58 µM; with SF-268 CNS it was 3.15 µM; in the experiment on UACC-62 melanoma it was 2.24 µM; with HOP-62 NSCLC, 3.8 µM; with LOX IMVI melanoma it was 1.72 µM. For the same molecule, the GI50 in the experiment on NCI-H460 lung was 1.73 µM; with UO-31 renal, 1.53 µM; with EKVX NSCLC, 8.48 µM; with SW-620 colon it was 3.08 µM. For the same molecule, the TGI in the experiment with SF-539 CNS was found to be 3.29 µM; with HOP-92 NSCLC it was 8.81 µM; with SF-268 CNS, 13.9 µM; with UACC-62 melanoma, 5.17 µM; in the experiment with HOP-62 NSCLC, 16.8 µM; in the experiment with LOX IMVI melanoma, 3.27 µM. In addition, the TGI is 3.49 µM in the experiment on NCI-H460 lung, 4.41 µM in the experiment with UO-31 renal, 21.2 µM in the experiment on EKVX NSCLC and 11.5 µM in the experiment on SW-620 colon.
Turning to `CN(C)CCCN1c2ccccc2Sc2ccc(Cl)cc21`, the GI50 was 3.22 µM and 11.4 µM with SF-539 CNS; 1.82 µM with HOP-92 NSCLC; 8.89 µM and 5.25 µM with SF-268 CNS; 1.94 µM and 2.07 µM in the experiment on UACC-62 melanoma; 14.6 µM and 11.7 µM with HOP-62 NSCLC; 10.8 µM and 10.3 µM in the experiment on LOX IMVI melanoma. In addition, the GI50 is 4.72 µM and 10.8 µM in the experiment with NCI-H460 lung; 2.89 µM and 3.46 µM in the experiment on UO-31 renal; 12.7 µM and 11.8 µM in the experiment on EKVX NSCLC; 3.57 µM and 3.69 µM with SW-620 colon. In addition, the TGI with SF-539 CNS was 7.79 µM and 26 µM; in the experiment with HOP-92 NSCLC, 8.71 µM; in the experiment with SF-268 CNS it was 21.4 µM and 18.5 µM; in the experiment on UACC-62 melanoma, 4.01 µM and 5.11 µM; in the experiment on HOP-62 NSCLC, 28.8 µM and 24.9 µM; in the experiment with LOX IMVI melanoma it was 23.4 µM and 24.5 µM. The TGI is 17.1 µM and 23.8 µM with NCI-H460 lung; 13.7 µM and 17.2 µM with UO-31 renal; 28.1 µM and 28 µM in the experiment with EKVX NSCLC; 13.7 µM and 14.6 µM in the experiment on SW-620 colon.
As to `C/C(=N/NC(=O)CC(=O)N(C(=O)c1ccccc1Cl)c1ccc(C)cc1)c1cc2ccccc2oc1=O`, the TGI in the experiment on SF-539 CNS, with HOP-92 NSCLC, in the experiment with SF-268 CNS, with UACC-62 melanoma, with HOP-62 NSCLC and in the experiment on LOX IMVI melanoma was above 100 µM in each case. For the same molecule, the TGI in the experiment on NCI-H460 lung, in the experiment on UO-31 renal, in the experiment with EKVX NSCLC and with SW-620 colon was above 100 µM each time.
With `Cc1n(Cc2ccc3ccccc3c2)c(Cl)c(Cl)[n+]1Cc1ccc2ccccc2c1`, the GI50 in the experiment with SF-539 CNS was 1.62 µM; with HOP-92 NSCLC, 1.17 µM; with SF-268 CNS, 1.67 µM; in the experiment on UACC-62 melanoma, 1.38 µM; in the experiment on HOP-62 NSCLC it was 1.79 µM; in the experiment with LOX IMVI melanoma it was 1.6 µM. Further, the GI50 with NCI-H460 lung was 1.69 µM; in the experiment with UO-31 renal, 1.71 µM; in the experiment with EKVX NSCLC it was 2.4 µM; in the experiment on SW-620 colon it was 1.48 µM. For the same molecule, the TGI with SF-539 CNS came to 3.08 µM; in the experiment on HOP-92 NSCLC, 2.94 µM; with SF-268 CNS it was 3.29 µM; with UACC-62 melanoma it was 2.74 µM; with HOP-62 NSCLC it was 3.81 µM; with LOX IMVI melanoma, 2.95 µM. The TGI with NCI-H460 lung was 3.2 µM; in the experiment with UO-31 renal it was 8.24 µM; with EKVX NSCLC it was 8.01 µM; in the experiment on SW-620 colon it was 3.06 µM.
In the case of `COc1ccc(NC(=O)c2sc3nc4c(cc3c2N)CCCC4)cc1`, the GI50 is 0.372 µM in the experiment with SF-539 CNS; 10.6 µM with HOP-92 NSCLC; 0.899 µM in the experiment on SF-268 CNS; 0.352 µM in the experiment on UACC-62 melanoma; 0.752 µM in the experiment on HOP-62 NSCLC; 0.686 µM with LOX IMVI melanoma. Also, the GI50 in the experiment with NCI-H460 lung was 0.543 µM; in the experiment on UO-31 renal it was 0.795 µM; in the experiment on EKVX NSCLC, 1.13 µM; in the experiment on SW-620 colon it was 0.429 µM. The TGI with SF-539 CNS is 6.52 µM; in the experiment on HOP-92 NSCLC, 76.3 µM; with SF-268 CNS it was above 100 µM; in the experiment on UACC-62 melanoma it was above 100 µM; in the experiment on HOP-62 NSCLC it was above 100 µM; in the experiment on LOX IMVI melanoma, above 100 µM. The TGI with NCI-H460 lung is 19.8 µM; in the experiment on UO-31 renal, above 100 µM; in the experiment with EKVX NSCLC, above 100 µM; in the experiment on SW-620 colon, above 100 µM.
Consider `Cc1ccccc1NC(=O)C(=O)CC(=O)c1ccc([N+](=O)[O-])cc1`, for which the TGI with SF-539 CNS, with HOP-92 NSCLC, in the experiment on SF-268 CNS, in the experiment on UACC-62 melanoma, with HOP-62 NSCLC and with LOX IMVI melanoma was above 100 µM throughout. The TGI with NCI-H460 lung, with UO-31 renal, in the experiment with EKVX NSCLC and with SW-620 colon was above 100 µM each time.
In the case of `CC1=C(C(=O)CC(=O)C(=O)NC2C3CC4CC(C3)CC2C4)Sc2ccccc2N1` (stereo not given), the TGI in the experiment on SF-539 CNS, in the experiment with HOP-92 NSCLC, in the experiment on SF-268 CNS, with UACC-62 melanoma, in the experiment with HOP-62 NSCLC and in the experiment on LOX IMVI melanoma was above 100 µM throughout. Also, the TGI in the experiment on NCI-H460 lung, with UO-31 renal, in the experiment on EKVX NSCLC and in the experiment on SW-620 colon was above 100 µM each time.
As to `O=C(Nc1ccc(Cl)cc1)Nc1ccccc1CNc1nc(Nc2ccc(OCCN3CCCC3)cc2)ncc1Cl`, the GI50 is 0.863 µM in the experiment on SF-539 CNS; 0.985 µM in the experiment on HOP-92 NSCLC; 1.29 µM in the experiment with SF-268 CNS; 0.903 µM with UACC-62 melanoma; 1.28 µM with HOP-62 NSCLC; 0.901 µM in the experiment on LOX IMVI melanoma. The GI50 is 0.936 µM in the experiment on NCI-H460 lung, 0.782 µM in the experiment on UO-31 renal, 1.55 µM in the experiment on EKVX NSCLC and 1.12 µM in the experiment on SW-620 colon. In addition, the TGI was 1.61 µM in the experiment with SF-539 CNS; 2.77 µM with HOP-92 NSCLC; 4.04 µM in the experiment with SF-268 CNS; 1.78 µM in the experiment with UACC-62 melanoma; 3.88 µM with HOP-62 NSCLC; 1.64 µM with LOX IMVI melanoma. Moreover, the TGI with NCI-H460 lung is 1.78 µM; in the experiment with UO-31 renal, 1.59 µM; with EKVX NSCLC, 6.63 µM; in the experiment on SW-620 colon, 2.67 µM.
